Source: ChEMBL document CHEMBL3758137 (Eur J Med Chem, 2016)

What was measured:
[1] = molecular target: Hepatocyte growth factor receptor (Homo sapiens, UniProt P08581); assay: Inhibition of recombinant c-Met (unknown origin) using poly (Glu,Tyr)4:1 as substrate after 60 mins by ELISA
[2] = Antiproliferative activity against human EBC1 cells after 72 hrs by SRB assay; conditions: EBC-1, 72 h
[3] = Solubility of compound in HBSS/HEPES buffer at pH 6.8 by nephelometric analysis in presence of 0.1% BSA; format: physicochemical; conditions: HBSS/HEPES buffer with 0.1% BSA
[4] = Solubility of compound in HBSS/HEPES buffer at pH 7.4 by nephelometric analysis in presence of 0.1% BSA; format: physicochemical; conditions: HBSS/HEPES buffer with 0.1% BSA
[5] = Solubility of compound in TRIS buffer by nephelometric analysis in presence of 0.1% BSA; format: physicochemical; conditions: TRIS buffer with 0.1% BSA
[6] = Apparent permeability from apical to basolateral side in human Caco2 cells after 35 to 95 mins by LC-MS/MS analysis; format: ADME, cell-based; conditions: Caco-2
[7] = tested on: Liver microsome; assay: Intrinsic clearance in human liver microsomes at 0.1 uM after 7 to 60 mins by LC-MS/MS analysis; format: ADME
[8] = Intrinsic clearance in mouse liver microsomes at 0.1 uM after 7 to 60 mins by LC-MS/MS analysis; format: ADME
[9] = tested on: Liver microsome; assay: Intrinsic clearance in rat liver microsomes at 0.1 uM after 7 to 60 mins by LC-MS/MS analysis; format: ADME
[10] = molecular target: T1, Tyrosine-protein kinase receptor UFO (Homo sapiens, UniProt P30530); assay: Inhibition of recombinant human Axl using poly (Glu,Tyr)4:1 as substrate after 60 mins by ELISA
T1 sequence (P30530 whole entry): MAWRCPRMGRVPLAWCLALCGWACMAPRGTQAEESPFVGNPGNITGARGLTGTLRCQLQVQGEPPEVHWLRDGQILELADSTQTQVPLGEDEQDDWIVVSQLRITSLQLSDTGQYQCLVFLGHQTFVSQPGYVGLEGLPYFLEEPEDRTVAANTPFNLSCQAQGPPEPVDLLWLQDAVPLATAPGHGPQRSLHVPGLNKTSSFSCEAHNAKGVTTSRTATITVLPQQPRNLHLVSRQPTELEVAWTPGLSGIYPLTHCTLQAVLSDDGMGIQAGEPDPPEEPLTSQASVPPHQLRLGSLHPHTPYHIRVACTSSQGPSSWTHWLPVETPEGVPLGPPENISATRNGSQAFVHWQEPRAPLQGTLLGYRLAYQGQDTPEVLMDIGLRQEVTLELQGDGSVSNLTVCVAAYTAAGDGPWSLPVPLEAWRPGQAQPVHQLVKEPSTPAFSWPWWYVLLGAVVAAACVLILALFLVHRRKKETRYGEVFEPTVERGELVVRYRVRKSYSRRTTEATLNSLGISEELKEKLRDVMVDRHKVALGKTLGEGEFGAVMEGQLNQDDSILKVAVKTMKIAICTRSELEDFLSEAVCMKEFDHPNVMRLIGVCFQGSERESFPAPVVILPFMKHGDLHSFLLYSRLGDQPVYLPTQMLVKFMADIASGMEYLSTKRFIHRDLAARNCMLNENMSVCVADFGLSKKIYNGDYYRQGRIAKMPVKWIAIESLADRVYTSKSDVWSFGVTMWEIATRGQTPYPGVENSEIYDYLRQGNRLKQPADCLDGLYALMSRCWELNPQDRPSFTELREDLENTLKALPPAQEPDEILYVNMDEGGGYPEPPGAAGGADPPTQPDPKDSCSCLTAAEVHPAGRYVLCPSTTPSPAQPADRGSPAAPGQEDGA

[11] = molecular target: Fibroblast growth factor receptor 1 (Homo sapiens, UniProt P11362); assay: Inhibition of recombinant human FGFR1 using poly (Glu,Tyr)4:1 as substrate after 60 mins by ELISA
[12] = molecular target: Platelet-derived growth factor receptor alpha (Homo sapiens, UniProt P16234); assay: Inhibition of recombinant human PDGFR-alpha using poly (Glu,Tyr)4:1 as substrate after 60 mins by ELISA
[13] = molecular target: Epidermal growth factor receptor (Homo sapiens, UniProt P00533); assay: Inhibition of recombinant human EGFR using poly (Glu,Tyr)4:1 as substrate after 60 mins by ELISA
[14] = molecular target: T2, Receptor-type tyrosine-protein kinase FLT3 (Homo sapiens, UniProt P36888); assay: Inhibition of recombinant human Flt-3 using poly (Glu,Tyr)4:1 as substrate after 60 mins by ELISA
T2 sequence (P36888 whole entry): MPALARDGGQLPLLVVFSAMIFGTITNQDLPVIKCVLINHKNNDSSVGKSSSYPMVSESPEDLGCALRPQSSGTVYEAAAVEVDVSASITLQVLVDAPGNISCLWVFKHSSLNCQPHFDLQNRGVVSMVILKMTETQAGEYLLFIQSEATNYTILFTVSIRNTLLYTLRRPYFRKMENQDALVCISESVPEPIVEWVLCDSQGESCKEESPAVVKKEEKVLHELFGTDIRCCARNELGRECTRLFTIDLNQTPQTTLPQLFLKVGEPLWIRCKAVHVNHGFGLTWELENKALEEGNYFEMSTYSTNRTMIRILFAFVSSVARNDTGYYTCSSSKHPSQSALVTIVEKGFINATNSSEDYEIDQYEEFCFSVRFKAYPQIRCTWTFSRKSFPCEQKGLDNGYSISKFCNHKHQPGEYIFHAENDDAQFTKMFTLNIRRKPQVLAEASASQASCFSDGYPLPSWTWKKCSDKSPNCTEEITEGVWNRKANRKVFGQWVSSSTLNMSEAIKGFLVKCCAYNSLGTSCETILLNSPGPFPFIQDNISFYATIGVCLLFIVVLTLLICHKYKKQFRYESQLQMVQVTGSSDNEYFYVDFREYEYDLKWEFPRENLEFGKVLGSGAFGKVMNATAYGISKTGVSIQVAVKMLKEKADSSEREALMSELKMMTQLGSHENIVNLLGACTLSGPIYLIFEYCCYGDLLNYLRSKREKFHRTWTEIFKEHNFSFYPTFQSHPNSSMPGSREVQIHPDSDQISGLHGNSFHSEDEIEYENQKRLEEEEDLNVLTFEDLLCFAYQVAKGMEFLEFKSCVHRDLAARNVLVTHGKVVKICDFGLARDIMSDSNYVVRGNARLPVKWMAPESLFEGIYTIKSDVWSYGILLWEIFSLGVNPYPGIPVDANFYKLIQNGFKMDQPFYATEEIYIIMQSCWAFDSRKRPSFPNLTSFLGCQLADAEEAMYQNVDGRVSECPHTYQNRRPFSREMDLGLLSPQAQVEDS

[15] = molecular target: Proto-oncogene tyrosine-protein kinase Src (Homo sapiens, UniProt P12931); assay: Inhibition of recombinant human c-Src using poly (Glu,Tyr)4:1 as substrate after 60 mins by ELISA
Sequence of Proto-oncogene tyrosine-protein kinase Src (P12931 2-536 limits assumed): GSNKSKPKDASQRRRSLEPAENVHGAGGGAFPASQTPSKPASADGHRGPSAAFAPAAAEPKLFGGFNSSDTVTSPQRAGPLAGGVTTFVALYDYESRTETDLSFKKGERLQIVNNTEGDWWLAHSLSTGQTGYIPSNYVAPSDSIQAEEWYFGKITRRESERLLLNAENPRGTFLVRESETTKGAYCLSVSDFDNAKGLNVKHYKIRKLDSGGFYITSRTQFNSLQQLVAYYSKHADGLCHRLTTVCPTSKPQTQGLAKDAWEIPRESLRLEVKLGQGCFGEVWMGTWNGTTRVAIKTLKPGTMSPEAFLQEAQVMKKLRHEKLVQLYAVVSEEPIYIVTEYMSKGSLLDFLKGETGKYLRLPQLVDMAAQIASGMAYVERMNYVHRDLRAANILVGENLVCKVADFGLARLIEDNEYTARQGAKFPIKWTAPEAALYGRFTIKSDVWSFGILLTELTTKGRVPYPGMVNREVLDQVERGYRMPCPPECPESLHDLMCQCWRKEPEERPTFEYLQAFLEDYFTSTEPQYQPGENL

Sequence of Platelet-derived growth factor receptor alpha (P16234 whole entry): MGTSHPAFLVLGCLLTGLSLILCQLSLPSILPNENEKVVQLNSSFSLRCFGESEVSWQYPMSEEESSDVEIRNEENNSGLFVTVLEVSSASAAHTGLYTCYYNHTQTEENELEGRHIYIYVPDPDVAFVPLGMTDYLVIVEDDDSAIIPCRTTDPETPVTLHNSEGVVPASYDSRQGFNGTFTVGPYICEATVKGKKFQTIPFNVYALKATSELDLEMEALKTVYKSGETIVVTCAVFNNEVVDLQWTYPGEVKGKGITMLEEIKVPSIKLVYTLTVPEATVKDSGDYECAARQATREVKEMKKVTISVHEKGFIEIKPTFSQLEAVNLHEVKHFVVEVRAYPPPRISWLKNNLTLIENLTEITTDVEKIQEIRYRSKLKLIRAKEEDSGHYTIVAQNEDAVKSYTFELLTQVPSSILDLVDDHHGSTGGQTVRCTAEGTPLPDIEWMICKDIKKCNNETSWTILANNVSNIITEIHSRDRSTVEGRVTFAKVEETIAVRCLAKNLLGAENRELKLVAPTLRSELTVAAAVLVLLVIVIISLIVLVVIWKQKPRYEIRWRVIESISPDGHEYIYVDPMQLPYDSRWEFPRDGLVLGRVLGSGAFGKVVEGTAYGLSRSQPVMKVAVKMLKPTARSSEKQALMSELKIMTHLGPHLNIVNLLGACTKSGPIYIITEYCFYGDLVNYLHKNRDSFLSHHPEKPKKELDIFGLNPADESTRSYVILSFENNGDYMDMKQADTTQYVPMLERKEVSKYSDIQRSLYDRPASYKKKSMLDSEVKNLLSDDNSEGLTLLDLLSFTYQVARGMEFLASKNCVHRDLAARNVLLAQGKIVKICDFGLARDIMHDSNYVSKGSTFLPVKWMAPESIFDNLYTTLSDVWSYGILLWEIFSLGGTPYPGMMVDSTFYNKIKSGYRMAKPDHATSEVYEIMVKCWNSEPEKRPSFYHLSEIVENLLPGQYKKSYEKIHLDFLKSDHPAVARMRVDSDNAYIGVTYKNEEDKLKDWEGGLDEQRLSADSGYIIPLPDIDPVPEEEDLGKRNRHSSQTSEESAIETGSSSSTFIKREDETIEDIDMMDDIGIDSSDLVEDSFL
Sequence of Hepatocyte growth factor receptor (P08581 whole entry): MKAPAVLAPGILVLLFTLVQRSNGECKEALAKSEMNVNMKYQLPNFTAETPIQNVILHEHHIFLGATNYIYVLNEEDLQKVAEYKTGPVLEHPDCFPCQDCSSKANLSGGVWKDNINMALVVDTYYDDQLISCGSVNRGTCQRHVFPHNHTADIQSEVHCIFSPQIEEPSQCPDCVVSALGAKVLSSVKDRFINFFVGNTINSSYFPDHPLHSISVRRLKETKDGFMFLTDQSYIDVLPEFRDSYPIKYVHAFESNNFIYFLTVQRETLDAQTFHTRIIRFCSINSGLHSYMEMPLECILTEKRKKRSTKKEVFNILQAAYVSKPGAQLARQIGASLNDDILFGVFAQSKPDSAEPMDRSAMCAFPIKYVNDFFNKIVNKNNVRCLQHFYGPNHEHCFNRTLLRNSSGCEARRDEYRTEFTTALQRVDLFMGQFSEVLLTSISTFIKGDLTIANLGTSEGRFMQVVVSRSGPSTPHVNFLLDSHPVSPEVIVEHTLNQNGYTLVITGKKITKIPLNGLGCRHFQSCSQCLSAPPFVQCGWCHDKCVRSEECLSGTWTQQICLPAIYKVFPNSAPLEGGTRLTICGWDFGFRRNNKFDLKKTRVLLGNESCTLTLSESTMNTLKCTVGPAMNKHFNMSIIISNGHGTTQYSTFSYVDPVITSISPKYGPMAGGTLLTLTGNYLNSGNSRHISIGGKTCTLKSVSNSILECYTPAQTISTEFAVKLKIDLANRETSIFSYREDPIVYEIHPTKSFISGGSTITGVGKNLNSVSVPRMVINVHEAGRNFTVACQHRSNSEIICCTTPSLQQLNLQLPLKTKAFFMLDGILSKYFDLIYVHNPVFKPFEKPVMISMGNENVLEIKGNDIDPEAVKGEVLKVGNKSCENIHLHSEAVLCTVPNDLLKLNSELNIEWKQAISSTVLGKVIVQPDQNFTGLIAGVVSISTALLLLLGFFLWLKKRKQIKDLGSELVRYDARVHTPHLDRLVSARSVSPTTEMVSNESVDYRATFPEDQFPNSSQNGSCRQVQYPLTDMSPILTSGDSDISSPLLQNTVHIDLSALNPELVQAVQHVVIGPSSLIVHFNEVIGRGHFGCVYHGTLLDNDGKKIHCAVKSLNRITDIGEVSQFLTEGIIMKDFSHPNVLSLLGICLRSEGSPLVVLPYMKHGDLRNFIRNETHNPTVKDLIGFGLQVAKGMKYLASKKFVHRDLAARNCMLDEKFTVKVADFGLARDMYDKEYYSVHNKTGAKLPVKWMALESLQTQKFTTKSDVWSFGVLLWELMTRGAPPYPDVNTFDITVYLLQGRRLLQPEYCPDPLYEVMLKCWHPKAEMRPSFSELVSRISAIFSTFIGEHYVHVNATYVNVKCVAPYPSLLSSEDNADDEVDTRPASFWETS
Sequence of Epidermal growth factor receptor (P00533 whole entry): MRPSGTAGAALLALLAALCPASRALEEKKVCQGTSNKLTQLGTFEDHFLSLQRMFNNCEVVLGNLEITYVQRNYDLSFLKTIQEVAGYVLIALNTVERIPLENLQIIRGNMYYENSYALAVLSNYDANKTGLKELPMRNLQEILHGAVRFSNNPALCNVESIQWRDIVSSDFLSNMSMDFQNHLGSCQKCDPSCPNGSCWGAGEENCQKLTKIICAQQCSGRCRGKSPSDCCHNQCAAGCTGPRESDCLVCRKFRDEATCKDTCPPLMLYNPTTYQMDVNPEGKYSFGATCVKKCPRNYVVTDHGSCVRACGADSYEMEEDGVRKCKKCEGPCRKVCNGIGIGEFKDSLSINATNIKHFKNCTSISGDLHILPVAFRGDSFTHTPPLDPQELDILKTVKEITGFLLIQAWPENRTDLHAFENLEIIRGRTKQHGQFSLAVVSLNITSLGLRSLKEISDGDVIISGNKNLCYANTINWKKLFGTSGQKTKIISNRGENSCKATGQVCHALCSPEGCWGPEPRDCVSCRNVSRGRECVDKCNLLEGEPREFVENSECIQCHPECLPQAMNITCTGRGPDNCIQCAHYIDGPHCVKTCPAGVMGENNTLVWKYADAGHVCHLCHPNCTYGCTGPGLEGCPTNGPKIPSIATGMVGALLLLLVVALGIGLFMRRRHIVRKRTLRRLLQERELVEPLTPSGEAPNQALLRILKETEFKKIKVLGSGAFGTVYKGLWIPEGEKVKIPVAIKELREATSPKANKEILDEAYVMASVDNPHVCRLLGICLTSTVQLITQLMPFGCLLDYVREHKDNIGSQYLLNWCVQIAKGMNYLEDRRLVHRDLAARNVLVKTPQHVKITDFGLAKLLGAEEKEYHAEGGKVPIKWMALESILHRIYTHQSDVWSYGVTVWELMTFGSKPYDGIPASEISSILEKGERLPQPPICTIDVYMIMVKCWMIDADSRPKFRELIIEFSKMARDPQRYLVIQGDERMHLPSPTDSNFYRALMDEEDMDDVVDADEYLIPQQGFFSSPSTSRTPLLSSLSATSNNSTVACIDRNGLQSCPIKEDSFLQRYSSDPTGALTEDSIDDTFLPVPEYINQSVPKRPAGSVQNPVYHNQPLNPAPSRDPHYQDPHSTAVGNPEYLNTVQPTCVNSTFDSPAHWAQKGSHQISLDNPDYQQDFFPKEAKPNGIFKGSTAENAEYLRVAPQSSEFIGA
Sequence of Fibroblast growth factor receptor 1 (P11362 whole entry): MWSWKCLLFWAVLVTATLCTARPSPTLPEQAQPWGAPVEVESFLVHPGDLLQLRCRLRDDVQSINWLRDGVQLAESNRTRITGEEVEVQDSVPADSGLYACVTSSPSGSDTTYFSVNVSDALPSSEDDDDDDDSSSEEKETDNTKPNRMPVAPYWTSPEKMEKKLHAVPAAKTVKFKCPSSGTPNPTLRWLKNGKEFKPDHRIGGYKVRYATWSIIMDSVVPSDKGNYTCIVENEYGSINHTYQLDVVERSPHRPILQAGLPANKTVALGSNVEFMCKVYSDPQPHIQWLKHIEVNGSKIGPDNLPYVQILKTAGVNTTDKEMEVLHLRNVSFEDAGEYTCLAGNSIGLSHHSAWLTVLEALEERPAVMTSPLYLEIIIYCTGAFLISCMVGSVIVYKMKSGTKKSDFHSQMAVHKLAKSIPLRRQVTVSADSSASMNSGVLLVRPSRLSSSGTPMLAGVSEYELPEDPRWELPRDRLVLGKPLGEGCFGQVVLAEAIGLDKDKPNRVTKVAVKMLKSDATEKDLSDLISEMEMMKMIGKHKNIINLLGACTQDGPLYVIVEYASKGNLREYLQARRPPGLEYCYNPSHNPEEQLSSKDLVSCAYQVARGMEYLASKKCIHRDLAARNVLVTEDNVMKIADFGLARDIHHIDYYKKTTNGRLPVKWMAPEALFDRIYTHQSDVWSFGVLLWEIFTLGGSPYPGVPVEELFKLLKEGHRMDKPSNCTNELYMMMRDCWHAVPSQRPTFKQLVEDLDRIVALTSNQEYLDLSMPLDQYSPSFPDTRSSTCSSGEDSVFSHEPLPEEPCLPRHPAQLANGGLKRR

## Cn1cc(-c2cnc(Nc3cccc(Cn4nc(-c5cnn(C)c5)ccc4=O)c3)nc2)cn1
[1]
  IC50: 0.0075 µM
[2]
  IC50: 0.0312 µM
[3]
  solubility kinetic: 51 µM
[4]
  solubility kinetic: 51 µM
[5]
  solubility kinetic: 51 µM
[6]
  Papp A→B: 170 nm/s
[7]
  CLH: 9 mL/min/g
[8]
  CLH: 16 mL/min/g
[9]
  CLH: 36 mL/min/g
[10]
  IC50: > 1 µM
[11]
  IC50: > 1 µM
[12]
  IC50: > 1 µM
[13]
  IC50: > 1 µM
[14]
  IC50: > 1 µM
[15]
  IC50: > 1 µM
